The text below walks through data of PMC7026418, “The kinase polypharmacology landscape of clinical PARP inhibitors” (Scientific Reports, 2020).

Experiment in all cases: biochemical
Holding throughout (set-up): DiscoveRx KINOMEscan active site-directed competition binding; percent of control kinase bound to immobilised ligand

Experiment [1] addresses WEE2 (Homo sapiens, UniProt P0C1S8).
Experiment [2] has as its target CSF1R (Homo sapiens, UniProt P07333).
The target of experiment [3] is KIT(D816V) (Homo sapiens, UniProt P10721, D816V).
In experiment [4] the target is EGFR(L861Q) (Homo sapiens, UniProt P00533, L861Q).
Experiment [5] has as its target GSK3A (Homo sapiens, UniProt P49840).
Experiment [6] has as its target IGF1R (Homo sapiens, UniProt P08069).
The target of experiment [7] is T1, FLT3(ITD,F691L) (Homo sapiens, UniProt P36888, F691L/ITD).
T1 sequence (P36888 564-993 F691L): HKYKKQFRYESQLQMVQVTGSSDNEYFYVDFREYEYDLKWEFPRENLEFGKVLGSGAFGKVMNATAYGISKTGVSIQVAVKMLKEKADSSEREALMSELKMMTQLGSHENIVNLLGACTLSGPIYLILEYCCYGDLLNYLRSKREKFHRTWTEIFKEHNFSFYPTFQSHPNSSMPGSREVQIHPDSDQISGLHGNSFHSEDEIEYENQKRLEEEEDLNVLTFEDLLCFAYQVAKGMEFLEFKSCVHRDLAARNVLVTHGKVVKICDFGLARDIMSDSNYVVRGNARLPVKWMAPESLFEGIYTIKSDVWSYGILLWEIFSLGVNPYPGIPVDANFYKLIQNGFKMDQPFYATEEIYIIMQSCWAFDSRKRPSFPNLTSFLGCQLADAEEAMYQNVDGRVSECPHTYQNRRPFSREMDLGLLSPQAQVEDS

For experiment [8], the target named is T2, RIOK1 (Homo sapiens, UniProt Q9BRS2).
T2 sequence (Q9BRS2 1-568): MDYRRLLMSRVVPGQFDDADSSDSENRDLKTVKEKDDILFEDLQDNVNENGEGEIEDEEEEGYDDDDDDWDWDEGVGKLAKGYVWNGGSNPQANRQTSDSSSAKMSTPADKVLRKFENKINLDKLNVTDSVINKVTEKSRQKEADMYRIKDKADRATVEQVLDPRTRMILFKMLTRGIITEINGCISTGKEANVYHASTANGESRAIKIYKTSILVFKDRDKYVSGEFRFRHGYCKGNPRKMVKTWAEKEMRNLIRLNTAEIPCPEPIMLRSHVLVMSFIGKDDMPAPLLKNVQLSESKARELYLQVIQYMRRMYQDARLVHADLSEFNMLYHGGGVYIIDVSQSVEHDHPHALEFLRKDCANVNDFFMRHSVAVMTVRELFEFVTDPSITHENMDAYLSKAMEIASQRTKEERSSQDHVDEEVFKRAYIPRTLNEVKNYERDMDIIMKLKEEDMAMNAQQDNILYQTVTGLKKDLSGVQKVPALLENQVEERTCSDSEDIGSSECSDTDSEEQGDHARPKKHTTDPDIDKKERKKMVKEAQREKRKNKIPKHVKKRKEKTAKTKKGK

The target of experiment [9] is EGFR(L747-E749del, A750P) (Homo sapiens, UniProt P00533, A750P/DEL747-749).
Experiment [10] deals with T3, MEK6 (Homo sapiens, UniProt P52564).
T3 construct: gene MAP2K6
T3 sequence (P52564 1-334): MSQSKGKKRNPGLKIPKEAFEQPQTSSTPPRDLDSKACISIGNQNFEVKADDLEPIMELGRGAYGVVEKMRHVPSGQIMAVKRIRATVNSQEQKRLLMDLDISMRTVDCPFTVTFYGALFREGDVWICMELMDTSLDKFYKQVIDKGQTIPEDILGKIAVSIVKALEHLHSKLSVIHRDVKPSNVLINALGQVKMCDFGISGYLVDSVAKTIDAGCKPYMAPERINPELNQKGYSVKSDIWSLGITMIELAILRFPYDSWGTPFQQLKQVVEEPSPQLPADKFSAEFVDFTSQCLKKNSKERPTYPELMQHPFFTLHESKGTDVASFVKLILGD

Setting [11] is: read-out: Niraparib (MK-4827) / %Ctrl @ 10000nM.
[12] abbreviates: read-out: Talazoparib (BMN 673) / %Ctrl @ 10000nM.
Setting [13] is: read-out: Rucaparib / %Ctrl @ 10000nM, binding competition, % of control.
The mark [14] stands for this setting: read-out: Olaparib / %Ctrl @ 10000nM.

Read-outs that look alike come from different tables or passages of the source.

EGFR(L747-E749del, A750P), sequence (P00533 with tags, fused parts or gaps DEL747-749/A750P): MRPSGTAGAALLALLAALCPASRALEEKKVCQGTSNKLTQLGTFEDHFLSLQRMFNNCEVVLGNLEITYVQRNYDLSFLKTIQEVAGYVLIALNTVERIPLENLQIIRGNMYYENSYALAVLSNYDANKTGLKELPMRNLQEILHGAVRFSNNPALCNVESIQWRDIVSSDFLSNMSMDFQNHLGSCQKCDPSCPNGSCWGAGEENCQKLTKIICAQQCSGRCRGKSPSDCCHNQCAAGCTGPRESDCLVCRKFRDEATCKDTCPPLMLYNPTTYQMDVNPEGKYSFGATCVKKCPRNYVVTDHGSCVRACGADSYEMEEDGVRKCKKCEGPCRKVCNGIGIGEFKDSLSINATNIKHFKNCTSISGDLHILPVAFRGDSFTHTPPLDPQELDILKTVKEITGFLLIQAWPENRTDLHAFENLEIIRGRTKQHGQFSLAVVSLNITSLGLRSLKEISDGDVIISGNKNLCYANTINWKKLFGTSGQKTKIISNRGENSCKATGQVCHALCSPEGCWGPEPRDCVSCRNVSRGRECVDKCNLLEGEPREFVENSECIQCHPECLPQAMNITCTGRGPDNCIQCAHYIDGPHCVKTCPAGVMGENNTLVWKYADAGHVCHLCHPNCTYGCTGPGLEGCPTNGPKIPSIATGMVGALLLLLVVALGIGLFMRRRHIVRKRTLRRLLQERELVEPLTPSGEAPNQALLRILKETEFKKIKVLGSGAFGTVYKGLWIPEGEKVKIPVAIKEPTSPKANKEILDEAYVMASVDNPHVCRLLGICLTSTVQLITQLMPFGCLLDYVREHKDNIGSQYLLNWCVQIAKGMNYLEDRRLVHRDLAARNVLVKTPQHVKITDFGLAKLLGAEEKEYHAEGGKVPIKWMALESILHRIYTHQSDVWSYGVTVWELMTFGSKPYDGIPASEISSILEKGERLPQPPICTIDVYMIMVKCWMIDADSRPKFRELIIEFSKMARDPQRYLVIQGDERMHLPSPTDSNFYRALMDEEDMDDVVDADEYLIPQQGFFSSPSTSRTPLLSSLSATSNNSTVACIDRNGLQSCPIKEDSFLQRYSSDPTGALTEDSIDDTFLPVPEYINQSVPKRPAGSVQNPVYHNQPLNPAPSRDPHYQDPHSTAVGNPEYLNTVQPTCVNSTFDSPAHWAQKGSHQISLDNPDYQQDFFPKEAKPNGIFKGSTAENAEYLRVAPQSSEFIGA
CSF1R, sequence (P07333 whole entry): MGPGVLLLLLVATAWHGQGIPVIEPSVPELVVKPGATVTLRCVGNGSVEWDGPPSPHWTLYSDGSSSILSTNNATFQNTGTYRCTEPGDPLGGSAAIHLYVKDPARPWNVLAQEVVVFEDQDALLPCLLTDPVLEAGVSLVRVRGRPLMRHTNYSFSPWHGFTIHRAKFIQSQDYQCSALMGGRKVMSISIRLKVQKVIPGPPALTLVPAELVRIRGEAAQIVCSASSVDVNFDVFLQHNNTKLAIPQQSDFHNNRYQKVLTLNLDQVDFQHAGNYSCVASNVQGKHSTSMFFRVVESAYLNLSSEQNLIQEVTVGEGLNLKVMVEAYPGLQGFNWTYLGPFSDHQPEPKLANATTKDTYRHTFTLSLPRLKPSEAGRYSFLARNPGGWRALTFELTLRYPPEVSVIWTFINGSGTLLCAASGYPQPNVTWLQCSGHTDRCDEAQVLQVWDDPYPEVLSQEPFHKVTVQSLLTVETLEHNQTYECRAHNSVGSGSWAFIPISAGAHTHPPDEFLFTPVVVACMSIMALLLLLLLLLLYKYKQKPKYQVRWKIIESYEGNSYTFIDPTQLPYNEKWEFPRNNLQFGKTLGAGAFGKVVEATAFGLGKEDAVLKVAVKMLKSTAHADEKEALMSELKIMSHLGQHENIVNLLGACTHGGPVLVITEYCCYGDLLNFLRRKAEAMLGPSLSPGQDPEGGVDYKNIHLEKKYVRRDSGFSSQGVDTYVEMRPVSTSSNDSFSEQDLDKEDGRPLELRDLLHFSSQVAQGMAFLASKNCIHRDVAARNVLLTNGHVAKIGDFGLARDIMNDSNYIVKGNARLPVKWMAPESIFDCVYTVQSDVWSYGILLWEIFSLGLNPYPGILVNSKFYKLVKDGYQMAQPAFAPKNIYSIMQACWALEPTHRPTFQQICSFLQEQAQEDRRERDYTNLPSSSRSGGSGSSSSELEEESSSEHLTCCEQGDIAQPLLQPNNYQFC
IGF1R, sequence (P08069 whole entry): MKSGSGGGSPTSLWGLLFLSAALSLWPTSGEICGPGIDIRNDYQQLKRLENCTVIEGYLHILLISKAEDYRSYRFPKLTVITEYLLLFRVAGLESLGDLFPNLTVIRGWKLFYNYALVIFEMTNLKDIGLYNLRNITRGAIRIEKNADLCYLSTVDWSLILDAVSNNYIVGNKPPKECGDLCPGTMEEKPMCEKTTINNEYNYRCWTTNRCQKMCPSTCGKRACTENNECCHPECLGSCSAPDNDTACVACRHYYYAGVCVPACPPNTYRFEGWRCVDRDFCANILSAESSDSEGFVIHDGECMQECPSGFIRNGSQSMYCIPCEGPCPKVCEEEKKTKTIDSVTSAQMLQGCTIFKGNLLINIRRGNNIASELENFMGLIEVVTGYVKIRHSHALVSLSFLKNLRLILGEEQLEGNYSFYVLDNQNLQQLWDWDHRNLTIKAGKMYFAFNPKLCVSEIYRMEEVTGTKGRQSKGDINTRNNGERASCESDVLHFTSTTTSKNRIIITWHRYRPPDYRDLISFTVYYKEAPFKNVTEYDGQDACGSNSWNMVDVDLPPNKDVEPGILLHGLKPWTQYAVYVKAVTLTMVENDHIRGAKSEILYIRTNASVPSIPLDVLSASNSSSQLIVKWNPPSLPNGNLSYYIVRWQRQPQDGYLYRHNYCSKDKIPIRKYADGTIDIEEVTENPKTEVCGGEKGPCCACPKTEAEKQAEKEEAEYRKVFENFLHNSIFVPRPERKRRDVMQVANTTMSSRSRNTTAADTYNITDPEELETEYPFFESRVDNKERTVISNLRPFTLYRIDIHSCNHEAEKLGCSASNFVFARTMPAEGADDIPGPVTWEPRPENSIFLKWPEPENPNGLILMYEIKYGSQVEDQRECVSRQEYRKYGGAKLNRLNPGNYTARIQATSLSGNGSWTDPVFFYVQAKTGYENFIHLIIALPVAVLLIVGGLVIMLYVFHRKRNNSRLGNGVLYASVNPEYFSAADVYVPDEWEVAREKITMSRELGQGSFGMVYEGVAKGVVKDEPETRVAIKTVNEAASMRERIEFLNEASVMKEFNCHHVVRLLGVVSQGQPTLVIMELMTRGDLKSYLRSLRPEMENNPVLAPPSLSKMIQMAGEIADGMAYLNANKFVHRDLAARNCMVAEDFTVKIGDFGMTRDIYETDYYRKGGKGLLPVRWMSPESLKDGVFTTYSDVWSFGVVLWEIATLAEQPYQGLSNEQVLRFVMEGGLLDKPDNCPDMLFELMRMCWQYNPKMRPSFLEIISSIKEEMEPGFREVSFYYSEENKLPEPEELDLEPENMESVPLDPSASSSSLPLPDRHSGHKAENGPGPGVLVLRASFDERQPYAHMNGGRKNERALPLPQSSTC
EGFR(L861Q), sequence (P00533 whole entry L861Q): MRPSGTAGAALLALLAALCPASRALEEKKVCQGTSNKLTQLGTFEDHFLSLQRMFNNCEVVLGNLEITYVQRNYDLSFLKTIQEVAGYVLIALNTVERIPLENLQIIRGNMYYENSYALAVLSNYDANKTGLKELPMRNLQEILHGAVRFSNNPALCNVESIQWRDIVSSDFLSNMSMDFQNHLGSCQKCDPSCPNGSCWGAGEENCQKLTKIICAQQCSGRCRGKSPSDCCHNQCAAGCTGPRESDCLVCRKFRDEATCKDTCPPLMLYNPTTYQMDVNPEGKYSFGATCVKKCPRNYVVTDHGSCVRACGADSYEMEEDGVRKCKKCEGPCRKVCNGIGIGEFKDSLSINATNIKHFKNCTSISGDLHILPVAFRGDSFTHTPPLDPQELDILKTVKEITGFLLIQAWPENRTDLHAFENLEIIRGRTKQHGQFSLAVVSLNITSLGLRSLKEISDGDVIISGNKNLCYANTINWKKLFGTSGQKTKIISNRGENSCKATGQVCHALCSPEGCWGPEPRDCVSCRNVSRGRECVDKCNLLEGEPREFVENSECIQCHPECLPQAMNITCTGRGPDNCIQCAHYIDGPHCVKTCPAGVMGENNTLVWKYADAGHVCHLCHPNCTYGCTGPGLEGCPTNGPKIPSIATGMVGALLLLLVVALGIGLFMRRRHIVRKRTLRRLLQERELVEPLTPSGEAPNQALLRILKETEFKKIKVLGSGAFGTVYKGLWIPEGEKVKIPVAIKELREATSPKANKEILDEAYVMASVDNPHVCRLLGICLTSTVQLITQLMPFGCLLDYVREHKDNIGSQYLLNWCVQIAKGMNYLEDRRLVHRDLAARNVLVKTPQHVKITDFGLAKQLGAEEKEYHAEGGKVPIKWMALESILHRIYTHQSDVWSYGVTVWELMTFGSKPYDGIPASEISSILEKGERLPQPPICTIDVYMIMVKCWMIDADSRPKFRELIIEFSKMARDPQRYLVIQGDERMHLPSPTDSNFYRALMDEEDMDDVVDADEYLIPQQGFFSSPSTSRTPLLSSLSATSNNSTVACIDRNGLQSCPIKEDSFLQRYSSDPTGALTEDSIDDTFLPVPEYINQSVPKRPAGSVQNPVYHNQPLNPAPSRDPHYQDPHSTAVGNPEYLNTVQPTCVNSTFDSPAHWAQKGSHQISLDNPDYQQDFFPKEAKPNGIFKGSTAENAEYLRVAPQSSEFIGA

Turning to `NC(=O)c1cccc2cn(-c3ccc([C@@H]4CCCNC4)cc3)nc12` [Niraparib], the percent of control binding at 10 µM in experiment [1] (setting [11]) was 100%; in experiment [2] (setting [11]) it was 91%; in experiment [3] (setting [11]), 89%; in experiment [4] (setting [11]) it was 88%; in experiment [5] (setting [11]), 48%; in experiment [6] (setting [11]) it was 97%. The percent of control binding at 10 µM in experiment [7] (setting [11]) was determined as 42%; in experiment [8] (setting [11]) it was 95%; in [9] (setting [11]), 65%; in [10] (setting [11]), 95%.

As for `Cn1ncnc1[C@H]1c2n[nH]c(=O)c3cc(F)cc(c23)N[C@@H]1c1ccc(F)cc1` [Talazoparib], the percent of control binding at 10 µM amounted to 100% in experiment [1] (setting [12]); 99% in experiment [2] (setting [12]); 94% in [3] (setting [12]); 82% in experiment [4] (setting [12]); 100% in [5] (setting [12]); 87% in experiment [6] (setting [12]). Besides, the percent of control binding at 10 µM in [7] (setting [12]) was found to be 100%; in experiment [8] (setting [12]) it was 100%; in experiment [9] (setting [12]), 96%; in experiment [10] (setting [12]), 83%.

As for `CNCc1ccc(-c2[nH]c3cc(F)cc4c3c2CCNC4=O)cc1` [Rucaparib], the percent of control binding at 10 µM was 100% in experiment [1] (setting [13]); 94% in experiment [2] (setting [13]); 96% in [3] (setting [13]); 70% in [4] (setting [13]); 21% in [5] (setting [13]); 98% in experiment [6] (setting [13]). Besides, the percent of control binding at 10 µM in experiment [8] (setting [13]) came to 100%; in experiment [9] (setting [13]), 98%; in experiment [10] (setting [13]) it was 81%. In addition, the “Rucaparib / %Ctrl @ 10000nM” value in experiment [7] (binding competition, % of control) is given as 26%.

For the molecule `O=C(c1cc(Cc2n[nH]c(=O)c3ccccc23)ccc1F)N1CCN(C(=O)C2CC2)CC1` [Olaparib], the percent of control binding at 10 µM in experiment [1] (setting [14]) was found to be 100%; in experiment [2] (setting [14]) it was 95%; in [3] (setting [14]), 100%; in experiment [4] (setting [14]), 91%; in experiment [5] (setting [14]) it was 95%; in [6] (setting [14]), 95%. Moreover, the percent of control binding at 10 µM came out at 84% in experiment [7] (setting [14]), 100% in experiment [8] (setting [14]), 82% in experiment [9] (setting [14]) and 86% in experiment [10] (setting [14]).
